Measurements from a compilation of properties of binary mixtures (doi:10.1016/j.molliq.2022.118933).

Assay: xn = mol fraction of the nth substance listed
Details: 100 kPa

CCCC[N+](C)(C)C[c-]1cccc1.O=S(=O)([N-]S(=O)(=O)C(F)(F)F)C(F)(F)F.[Fe+2].c1cc[cH-]c1 + CC#N
Details | electrical conductivity [S/m]
298 K, x1 = 0.01 | 1.35
298 K, x1 = 0.02 | 1.89
298 K, x1 = 0.05 | 2.2
298 K, x1 = 0.06 | 2.14
298 K, x1 = 0.07 | 2.07
298 K, x1 = 0.08 | 1.96
298 K, x1 = 0.1 | 1.8
298 K, x1 = 0.12 | 1.45
298 K, x1 = 0.15 | 1.17
298 K, x1 = 0.2 | 0.759
303 K, x1 = 0.01 | 1.41
303 K, x1 = 0.02 | 1.98
303 K, x1 = 0.03 | 2.28
303 K, x1 = 0.05 | 2.32
303 K, x1 = 0.06 | 2.28
303 K, x1 = 0.07 | 2.2
303 K, x1 = 0.08 | 2.07
303 K, x1 = 0.12 | 1.57
303 K, x1 = 0.15 | 1.24
303 K, x1 = 0.2 | 0.843
308 K, x1 = 0.01 | 1.47
308 K, x1 = 0.02 | 2.06
308 K, x1 = 0.03 | 2.39
308 K, x1 = 0.05 | 2.45
308 K, x1 = 0.06 | 2.41
308 K, x1 = 0.07 | 2.33
308 K, x1 = 0.1 | 2.01
308 K, x1 = 0.12 | 1.7
308 K, x1 = 0.15 | 1.36
313 K, x1 = 0.01 | 1.53
313 K, x1 = 0.02 | 2.15
313 K, x1 = 0.03 | 2.5
313 K, x1 = 0.05 | 2.57
313 K, x1 = 0.06 | 2.54
313 K, x1 = 0.08 | 2.34
313 K, x1 = 0.1 | 2.14
313 K, x1 = 0.12 | 1.81
313 K, x1 = 0.15 | 1.46
313 K, x1 = 0.2 | 1.04
318 K, x1 = 0.02 | 2.23
318 K, x1 = 0.03 | 2.6
318 K, x1 = 0.05 | 2.7
318 K, x1 = 0.07 | 2.61
318 K, x1 = 0.1 | 2.28
318 K, x1 = 0.12 | 1.94
323 K, x1 = 0.02 | 2.33
323 K, x1 = 0.03 | 2.71
323 K, x1 = 0.05 | 2.82
323 K, x1 = 0.06 | 2.8
323 K, x1 = 0.07 | 2.74
323 K, x1 = 0.08 | 2.6
323 K, x1 = 0.1 | 2.41
323 K, x1 = 0.12 | 2.07
323 K, x1 = 0.15 | 1.69
328 K, x1 = 0.01 | 1.69
328 K, x1 = 0.02 | 2.42
328 K, x1 = 0.03 | 2.82
328 K, x1 = 0.06 | 2.93
328 K, x1 = 0.07 | 2.87
328 K, x1 = 0.08 | 2.74
328 K, x1 = 0.1 | 2.55
328 K, x1 = 0.15 | 1.82
328 K, x1 = 0.2 | 1.34
333 K, x1 = 0.05 | 3.08
333 K, x1 = 0.06 | 3.06
333 K, x1 = 0.08 | 2.88
333 K, x1 = 0.1 | 2.69
333 K, x1 = 0.12 | 2.32
333 K, x1 = 0.15 | 1.94
333 K, x1 = 0.2 | 1.46
338 K, x1 = 0.01 | 1.8
338 K, x1 = 0.02 | 2.59
338 K, x1 = 0.03 | 3.03
338 K, x1 = 0.06 | 3.21
338 K, x1 = 0.08 | 3.02
338 K, x1 = 0.1 | 2.83
338 K, x1 = 0.12 | 2.46
338 K, x1 = 0.15 | 2.06
338 K, x1 = 0.2 | 1.57
343 K, x1 = 0.01 | 1.86
343 K, x1 = 0.02 | 2.67
343 K, x1 = 0.03 | 3.14
343 K, x1 = 0.05 | 3.33
343 K, x1 = 0.06 | 3.34
343 K, x1 = 0.1 | 2.96
343 K, x1 = 0.12 | 2.6
343 K, x1 = 0.2 | 1.7
348 K, x1 = 0.01 | 1.91
348 K, x1 = 0.03 | 3.24
348 K, x1 = 0.05 | 3.45
348 K, x1 = 0.06 | 3.46
348 K, x1 = 0.1 | 3.11
348 K, x1 = 0.15 | 2.32
348 K, x1 = 0.2 | 1.81
